US6403532B1, “Herbicidal synergistic composition, and method of controlling weeds” (Syngenta Crop Protection, Inc., priority 1995, dated 2002)

How the values were obtained:
Assay type in all cases: in vivo
[1] = system: transplanted rice; experiment: Herbicidal activity in paddy rice (transplanted), run-in method: crop plant tolerance
Description: (§1) Herbicidal Activity in Paddy Rice (transplanted):
(§2) The test plants are sown or planted in standard soil in shallow plastic containers under greenhouse conditions. The containers are then filled with water to soil level. After 3 days, the water level is raised by 2 cm, and the test substances are applied in the form of an aqueous suspension (Formulation Example F7, c)) by the run-in method (application into the water). The test plants are then grown on in the greenhouse under optimal conditions. 25 days after application, the test is evaluated using a % scale (100%=complete damage, 0%=no activity).
(§3) Test plants: transplanted rice, Sagittaria pygmaea, Scirpus juncoides and Heterantera.

[2] = system: Scirpus juncoides; experiment: Herbicidal activity in paddy rice (transplanted), run-in method: Scirpus juncoides; conditions: 25 days after application
Excerpt: (§4) A synergistic effect is always present when the activity of the active ingredient combination I and II, and/or III, and/or IV and/or V exceeds the total of the activity of the active ingredients applied singly.
(§5) The expected herbicidal activity Ae for a given combination of two herbicides can be calculated as follows (cf. COLBY, S. R., “Calculating synergistic and antagonistic response of herbicide combinations”, Weeds 15, pages 20-22, 1967):
(§6) X=per cent herbicidal activity in the treatment with the compound of formula I using a rate of application of p kg per hectare in comparison with untreated control (=0%).
(§7) Y=per cent herbicidal activity in the treatment with the compound of formulae II to V using a rate of application of q kg per hectare in comparison with untreated control.
(§8) Ae=expected herbicidal activity (per cent herbicidal activity comparison with the untreated control) after treatment with the compounds of formulae I and II to V at a rate of application of p+q kg of active ingredient per hectare.
(§9) If the activity actually observed exceeds the expected value Ae, synergism is present.
as §1, §2, §3

[3] = system: Heterantera; experiment: Herbicidal activity in paddy rice (transplanted), run-in method: Heterantera; conditions: 25 days after application
Excerpt: as §4, §5, §6, §7, §8, §9, §1, §2, §3

[4] = system: Sagittaria pygmaea; experiment: Herbicidal activity in paddy rice (transplanted), run-in method: Sagittaria pygmaea; conditions: 25 days after application
Excerpt: as §4, §5, §6, §7, §8, §9, §1, §2, §3
Table B1: Experiments in transplanted rice with Sagittaria pygmaea, using the run-in method

[5] = 500 g of active ingredient/ha, run-in method, 25 days after application
[6] = 60 g of active ingredient/ha, run-in method, 25 days after application
[7] = 250 g of active ingredient/ha, run-in method, 25 days after application

CCOC(=O)c1cnn(C)c1S(=O)(=O)NC(=O)Nc1nc(OC)cc(OC)n1 [1.2]
Crop plant transplanted rice ([1]; 8 g of active ingredient/ha, run-in method, 25 days after application): 0%
Crop plant transplanted rice ([1]; 15 g of active ingredient/ha, run-in method, 25 days after application): 0%
Crop plant transplanted rice ([1]; 30 g of active ingredient/ha, run-in method, 25 days after application): 0%
Weed Scirpus junc. ([2]; 15 g of active ingredient/ha): 0%
Weed Scirpus junc. ([2]; 30 g of active ingredient/ha): 20%
Weed Heterantera ([3]; 8 g of active ingredient/ha): 0%
Weed Heterantera ([3]; 15 g of active ingredient/ha): 0%
Weed Heterantera ([3]; 30 g of active ingredient/ha): 0%

COCCOc1ccccc1S(=O)(=O)NC(=O)Nc1nc(OC)nc(OC)n1 [1.3]
Crop plant transplanted rice ([1]; 6 g of active ingredient/ha, run-in method, 25 days after application): 0%
Crop plant transplanted rice ([1]; 12 g of active ingredient/ha, run-in method, 25 days after application): 0%
Crop plant transplanted rice ([1]; 24 g of active ingredient/ha, run-in method, 25 days after application): 15%
Weed Sagittaria pygm. ([4]; 6 g of active ingredient/ha): 70%
Weed Sagittaria pygm. ([4]; 12 g of active ingredient/ha): 75%
Weed Sagittaria pygm. ([4]; 24 g of active ingredient/ha): 94%

CN(C(=O)COc1nc2ccccc2s1)c1ccccc1 [2.1, 2-(1,3-benzothiazol-2-yloxy)-N-methylacetanilide]
Crop plant transplanted rice ([1]; in vivo): 0%
Weed Sagittaria pygm. ([4]; 500 g of active ingredient/ha): 0%
Weed Sagittaria pygm. ([4]; 1000 g of active ingredient/ha): 0%
Weed Scirpus junc. ([2]; 125 g of active ingredient/ha): 0%
Weed Scirpus junc. ([2]; 250 g of active ingredient/ha): 65%
Weed Scirpus junc. ([2]; 500 g of active ingredient/ha): 94%
Weed Heterantera ([3]; 500 g of active ingredient/ha): 40%
Weed Heterantera ([3]; 1000 g of active ingredient/ha): 50%

CCC(=O)Nc1ccc(Cl)c(Cl)c1 [2.2, 3′,4′-dichloropropionanilide]
Crop plant transplanted rice [1, 5]: 0%
Crop plant transplanted rice ([1]; 1000 g of active ingredient/ha, run-in method, 25 days after application): 0%
Weed Sagittaria pygm. ([4]; 500 g of active ingredient/ha): 0%
Weed Sagittaria pygm. ([4]; 1000 g of active ingredient/ha): 0%
Weed Scirpus junc. ([2]; 500 g of active ingredient/ha): 0%
Weed Scirpus junc. ([2]; 1000 g of active ingredient/ha): 35%
Weed Heterantera ([3]; 1000 g of active ingredient/ha): 0%

CCCOCCN(C(=O)CCl)c1c(CC)cccc1CC [2.3, 2-chloro-2′,6′-diethyl-N-(2-propoxyethyl)acetanilide]
Crop plant transplanted rice [1, 6]: 0%
Crop plant transplanted rice [1, 7]: 0%
Crop plant transplanted rice ([1]; 375 g of active ingredient/ha, run-in method, 25 days after application): 0%
Crop plant transplanted rice [1, 5]: 0%
Weed Sagittaria pygm. ([4]; 250 g of active ingredient/ha): 25%
Weed Sagittaria pygm. ([4]; 375 g of active ingredient/ha): 55%
Weed Sagittaria pygm. ([4]; 500 g of active ingredient/ha): 50%
Weed Heterantera ([3]; 60 g of active ingredient/ha): 0%
Weed Heterantera ([3]; 375 g of active ingredient/ha): 80%

CCCCOC(=O)[C@@H](C)Oc1ccc(Oc2ccc(C#N)cc2F)cc1 [3.1, butyl (R)-2-[4-(4-cyano-2-fluorophenoxy)phenoxy]propionate]
Crop plant transplanted rice ([1]; 125 g of active ingredient/ha, run-in method, 25 days after application): 0%
Crop plant transplanted rice [1, 7]: 0%
Weed Sagittaria pygm. ([4]; 125 g of active ingredient/ha): 0%
Weed Sagittaria pygm. ([4]; 250 g of active ingredient/ha): 0%
Weed Scirpus junc. ([2]; 125 g of active ingredient/ha): 0%
Weed Scirpus junc. ([2]; 250 g of active ingredient/ha): 0%
Weed Heterantera ([3]; 125 g of active ingredient/ha): 0%
Weed Heterantera ([3]; 250 g of active ingredient/ha): 0%

COc1cc(OC)nc(Sc2cccc3c2C(=O)OC3C)n1 (stereo not shown) [I]
Crop plant transplanted rice [1, 6]: 0%
Crop plant transplanted rice ([1]; 120 g of active ingredient/ha, run-in method, 25 days after application): 0%
Crop plant transplanted rice ([1]; 240 g of active ingredient/ha, run-in method, 25 days after application): 0%
Weed Sagittaria pygm. ([4]; 60 g of active ingredient/ha): 0%
Weed Sagittaria pygm. ([4]; 120 g of active ingredient/ha): 0%
Weed Sagittaria pygm. ([4]; 240 g of active ingredient/ha): 0%
Weed Scirpus junc. ([2]; 60 g of active ingredient/ha): 0%
Weed Scirpus junc. ([2]; 120 g of active ingredient/ha): 50%
Weed Scirpus junc. ([2]; 240 g of active ingredient/ha): 92%
Weed Heterantera ([3]; 60 g of active ingredient/ha): 0%
Weed Heterantera ([3]; 120 g of active ingredient/ha): 0%
Weed Heterantera ([3]; 240 g of active ingredient/ha): 70%

Clc1cc(Cl)nc(-c2ccccc2)n1 [VI, 4,6-dichloro-2-phenylpyrimidine]
Crop plant transplanted rice ([1]; in vivo): 0%
Weed Sagittaria pygm. ([4]; 125 g of active ingredient/ha): 0%
Weed Heterantera ([3]; 125 g of active ingredient/ha): 0%
